Assay results: patent US20100291543A1, “HOMOGENEOUS IN VITRO FEC ASSAYS AND COMPONENTS” (priority 2007, published 2010)
Several values for one entry are separate records, joined by “and”; a condition that tells them apart may be missing. Equal entries are not always repeated. Where two headings read alike, the source gives them in different places.

Experiments:
[1] = target: α and ω fragments of TEM-1 beta-lactamase (Escherichia coli, UniProt P62593, A182V/V82I); format: biochemical, E. coli
Protocol: Nitrocefin (Merck, Australia) is a colorimetric substrate of TEM-1 beta-lactamase that changes colour from yellow to red (OD492) following hydrolysis of the β-lactam ring. […] Assays were performed using a 96-well flat bottom cell-culture plate (TPP, Australia). Nitrocefin stock solutions of 200 or 600 μM were prepared in 50 mM NaH2PO4; 150 mM NaCl; 5% DMSO (Sigma, Australia) pH 7. For each 200 μl reaction, 100 μl of the nitrocefin stock was added to 100 μl of enzyme fragments (with or without Ni^2+) in 50 mM NaH2PO4 150 mM NaCl pH 7. Depending on the final signal required, the concentration of enzyme fragments used per well ranged from 40 nM to 200 nM and the final concentration of the Ni^2+ analyte from 100 μM or 200 μM. Assay components were mixed well by pipetting, incubated for 5 minutes at room temperature. Kinetics of the nitrocefin hydrolysis were read at 492 nm using a SpectraMax190 (Molecular Devices, USA).
In an attempt to improve the signal to noise ratio of forced α and ω fragments complementation, the effect of different buffer additives such as solvents, BSA, detergents, protein denaturants and salts were investigated. […] Assays were performed as described herein.
As a low concentration of solvent could partially denature the enzyme fragments, it was investigated whether a small amount of ethanol, isopropanol, methanol, DMSO and acetonitrile would reduce natural fragment complementation and increase the signal to noise ratio. The final concentrations of each solvent tested were 15%, 7.5%, 3.75%, 1.875%, […] and 0%. Kinetics of the complementation assays was read at 492 nm for 30 minutes. The signal/noise ratio was then calculated according to the maximum rate (mOD/min) from SoftmaxPro. […]
Detergent is widely used to reduce protein-protein interaction or ELISA background; using small amount might help preventing the natural fragment complementation by keeping two fragments apart then increased the signal/noise ratio. […] Reading data collecting time was 30 minutes. The signal/noise ratio was then calculated according to the maximum rate (mOD/min) from SoftmaxPro.
To test the effect of protein denaturants on enzyme fragment complementation, nitrocefin activity assays were performed using a matrix of fragment, substrate and NiSO4 concentrations in the presence of urea or guanidine hydrochloride. In preliminary assays, the complementation of 40 nM fragments was tested in concentrations of urea ranging from 2 M to 62.5 mM and in concentrations of GuHCl that ranged from 1M to 31.25 mM. The assay was prepared as follows: 40 nM of each fragment was added to a two-fold dilution series of urea [from 2 M urea 50 mM NaH2PO4 150 mM NaCl pH7 to 62.5 mM urea 50 mM NaH2PO4 150 mM NaCl pH7] or guanidine hydrochloride [from 1 M GuHCl 50 mM NaH2PO4 150 mM NaCl pH7 to 31.25 mM GuHCl 50 mM NaH2PO4 150 mM NaCl pH7] in duplicate. To the first set of wells, NiSO4 was added to a final concentration of 100 μM, whereas the second set contained no NiSO4. The plate was incubated for 5 minutes and the kinetics read at 492 nm using a SpectroMax reader.

human IgG (human) = experiment: surface plasmon resonance, same conditions as BLω-ProG
human IgG = experiment: Surface plasmon resonance binding kinetics for human IgG; details: SPR
Description: To confirm that the Protein G moiety of BLω-ProG was functional and suitable for testing in our HA format we assessed its binding kinetics for human IgG using surface plasmon resonance. […] A commercially available recombinant protein G, truncated to eliminate binding to human serum albumin, was included as a positive control.

[2] = test system: rabbit hyper-immune serum (anti-HSV-1 peptide); format: biochemical; details: with BLα-HSV1 (5 nM), hyper-immune serum 1:100
[3] = FPLC gel filtration (aggregation) of purified fragments; format: physicochemical; details: Purification Strategy: Denaturing CRF Ni-NTA
Description: In some cases, following affinity purification of the enzyme fragments, pooled eluates were subjected to size exclusion chromatography using a Superdex200GL column (Amersham cat. 17-5175-01) under the control of a DuoFlow chromatography system (BioRad cat. 760-0037). Gel filtration was used for either polishing of purified enzyme fragments (removal of contaminating proteins) or to determine the proportion of monomeric versus aggregated enzyme fragments after on-column refolding. The protocol was as follows: equilibration with 2 CV of 50 mM NaH2PO4 150 mM NaCl, pH7 at 0.6 ml/min; injection of 250-500 μl of sample at 0.6 ml/min; and isocratic flow of 1 CV of 50 mM NaH2PO4 150 mM NaCl, pH 7 at 0.6 ml/min. See FIG. 7 for exemplary results.

[4] = format: physicochemical
Protocol: The pellet from a 250 ml overnight induction was lysed in 25 ml of [6 M GuHCl-100 mM NaH2PO4 10 mM Tris pH 8] followed by a 1-hour incubation at 4° C. with shaking at 100 rpm. To enhance lysis, the suspension was sonicated in an ice bath for 5 cycles of 30 seconds on/30 seconds off using a Branson 250 sonifier. After sonication, the lysate was centrifuged at 12,000×g for 30 min (4° C.) and then passed through a 0.2 μm filter to remove cellular debris.
Recombinant His-tagged proteins were purified using a 1 ml HisTrap HP column (Amersham cat. 17-5247-01) under the control of a DuoFlow chromatography system (BioRad cat. 760-0037). The HisTrap column was equilibrated with 10 column volumes (CV) of 8 M urea 100 mM NaH2PO4 10 mM Tris pH 7.5 at a flow rate of 1 ml/min. Cleared E. coli lysates were then loaded onto the column using a Model EP-1 Econopump (BioRad cat. 731-8142) at 0.5 ml/min. The column was washed with 10 CV of 8 M Urea 100 mM NaH2PO4 10 mM Tris pH 6.3. Bound protein was refolded over a 60 CV gradient from 8 M Urea 100 mM NaH2PO4 10 mM Tris 200 mM L-arginine 100 μM GSSG pH 7.5 to 100 mM NaH2PO4 10 mM Tris 200 mM L-arginine 100 μM GSSG pH 7.5 at 1 ml/min. Histidine-tagged proteins were eluted with 10 CV of 250 mM imidazole 50 mM NaH2PO4 150 mM NaCl pH 8, and analysed by PAGE, western blotting, gel filtration and mass spectroscopy.

[5] = Purification Strategy: Denaturing CRF Ni-NTA

c1c[nH]cn1 [imidazole]
concentration at which optimal signal to noise ratio was achieved ([1]; imidazole): 12.5 mM
signal/noise ratio ([1]; imidazole final concentration 6.25 mM): 5.2
signal/noise ratio ([1]; imidazole final concentration 12.5 mM): 5.3
signal/noise ratio ([1]; imidazole final concentration 25 mM): 3.7
signal/noise ratio ([1]; imidazole final concentration 50 mM): 2.1
signal/noise ratio ([1]; imidazole final concentration 100 mM): 0.8

CCO [ethanol]
concentration at which optimal signal to noise ratio was achieved [1]: 3.75%
signal/noise ratio [1]: 7.1 and 8.4 and 8.5 and 5.4

CO [methanol]
concentration at which optimal signal to noise ratio was achieved ([1]; solvents and detergents): 7.5%

NC(N)=O [urea]
concentration at which optimal signal to noise ratio was achieved ([1]; denaturant): 0.5 M

commercially available recombinant protein G, truncated to eliminate binding to human serum albumin
Kd (human IgG (human)): 483 nM

CC#N [acetonitrile]
concentration at which optimal signal to noise ratio was achieved ([1]; solvents and detergents): 3.75%

Tween-20
concentration at which optimal signal to noise ratio was achieved ([1]; solvents and detergents): 0.15%

C[S+](C)[O-] [DMSO]
concentration at which optimal signal to noise ratio was achieved [1]: 15%

Triton-X100
concentration at which optimal signal to noise ratio was achieved [1]: 0.3%

CC(C)O [isoproponal, isopropanol]
concentration at which optimal signal to noise ratio was achieved ([1]; solvents and detergents): 3.75%

B1: BLω-ProG: omega fragment fused via (G4S)3 linker to C2 domain of protein G, SEQ ID NO: 83 (protein)
chain: MHHHHHHGGGGSGSTYKLVINGKTLKGETTTEAVDAATAEKVFKQYANDNGVDGEWTYDDATKTFTVTETSGGGGSGGGGSGGGGSASELLTLASRQQLIDWMEADKVAGPLLRSALPAGWFIADKSGAGERGSRGIIAALGPDGKPSRIVVIYTTGSQATMDERDRQIAEIGASLIKHW
modifications: Protein G subunit omega reporter fragment displaying sequence of BLaProGconstruct
rate of association (human IgG): slower rate of association than the C2 domain
rate of dissociation (human IgG): slower rate of dissociation
Kd (human IgG; read-out: dissociation constant (KD)): 81 nM
level of activity [2]: highest level of activity

B2: PB11.2: alpha fragment construct containing substitutions V74T and M182T, SEQ ID NO: 6 (protein)
chain: MHPETLVKVKDAEDQLGARVGYIELDLNSGKILESFRPEERFPMMSTFKTLLCGAVLSRIDAGQEQLGRRIHYSQNDLVEYSPVTEKHLTDGMTVRELCSAAITMSDNTAANLLLTTIGGPKELTAFLHNMGDHVTRLDRWEPELNEAIPNDERDTTTPVAMATTLRKLLTGGGGGSHHHHHH
modifications: PB11.2 construct
FPLC (aggregation) [3]: <+

B3: PB15: rearranged full-length (FL) construct of Beta-lactamase, SEQ ID NO: 21 (protein)
chain: MHMHHHHHHEERFPMMSTFKVLLCGAVLSRIDAGQEQLGRRIHYSQNDLVEYSPVTEKHLTDGMTVRELCSAAITMSDNTAANLLLTTIGGPKELTAFLHNMGDHVTRLDRWEPELNEAIPNDERDTTMPVAMATTLRKLLTGELLTLASRQQLIDWMEADKVAGPLLRSALPAGWFIADKSGAGERGSRGIIAALGPDGKPSRIVVIYTTGSQATMDERNRQIAEIGASLIKHWGSGSGHPETLVKVKDAEDQLGARVGYIELDLNSGKILESFRH
modifications: PB15
Purification (solubility) [4, 5]: >+++
Purification (solubility) ([4]; Purification Strategy: Native Ni-NTA): <+

B4: PB15.3: rearranged construct of Beta-lactamase with substitutions M182T, I208T and F230Y, SEQ ID NO: 22 (protein)
chain: MHMHHHHHHEERFPMMSTFKVLLCGAVLSRIDAGQEQLGRRIHYSQNDLVEYSPVTEKHLTDGMTVRELCSAAITMSDNTAANLLLTTIGGPKELTAFLHNMGDHVTRLDRWEPELNEAIPNDERDTTTPVAMATTLRKLLTGELLTLASRQQLTDWMEADKVAGPLLRSALPAGWYIADKSGAGERGSRGIIAALGPDGKPSRIVVIYTTGSQATMDERNRQIAEIGASLIKHWGSGSGHPETLVKVKDAEDQLGARVGYIELDLNSGKILESFRH
modifications: PB15.3 (M182T, I208T, F230Y)
Purification (solubility) [4, 5]: >+++
